According to a melting point compilation (Tetko et al.; mined from patent text by program, amines drawn as free bases though some values may be those of a salt):

Row | SMILES | melting point [°C]
1 | CC(C#N)(C(O)c1ccc(Cl)cc1Cl)n1cncn1 (stereo not given) | 164 to 168
2 | CN1CCN(CCCNc2ccccc2N)CC1 | 65 to 67
3 | CCCCC(=O)Cc1ccc(C(=O)Nc2ccc3cc(CN4CCCC4)cnc3c2C)cc1 | 156
4 | Fc1ccc2c(c1)nc(Cl)c1nnc(C(F)(F)F)n12 | 135 to 138
5 | CC(C)(F)[C@H]1C(=O)N[C@@H]1CC(=O)O (racemic) | 118 to 122
6 | COC(=O)Cc1c(C(=O)OC)oc2ccccc2c1=O | 105
7 | COc1cc(-n2cc(C(=O)O)c(=O)c3cc(F)c(F)c(Cl)c32)ccc1F | > 280
8 | CCCCCC(=O)c1cccc(NC(=O)c2ccc(Cl)cc2O)c1 | 134 to 136
9 | CC(=O)NS(=O)(=O)c1ccc(-c2c(-c3cccc(F)c3)noc2C)cc1 | 144 to 145
10 | Cc1ccccc1C(=O)Nc1ccc(C(=O)N2CCCC(N(C)S(C)(=O)=O)c3ccccc32)cc1 (stereo not given) | 197 to 198
11 | CCS(=O)(=O)N(C)[C@@H]1c2cc([N+](=O)[O-])ccc2OCC[C@H]1O (relative stereo) | 133 to 135
12 | Cn1cc(C(=O)O)c(=O)c2cc3cc(F)c(N4CCNC(c5ccccc5F)C4)cc3nc21 (racemic) | 264
13 | C[C@@H](NC(=O)c1cnn(-c2ccc(Cl)cc2)c1N)[C@](O)(Cn1cncn1)c1ccc(F)cc1F | 181 to 182
14 | COc1cc(C)c(NS(=O)(=O)N(C)C)cc1C(=O)NCC1CCCO1 (stereo not given) | 130 to 131
15 | CC(C)Cn1c(CNC(=O)OC(C)(C)C)c(-c2cccs2)c2cc(C(N)=O)ccc2c1=O | 248 to 250
16 | c1ccc(-c2ncc(-c3nnc(-c4ccccc4)[nH]3)cn2)cc1 | 280 to 282
17 | COC(=O)C=CC=CCSc1ccc(Cl)cc1 | 75 to 77
18 | CCCCCCCCC(SCCCCCC)C(=O)Nc1c(Cl)cc(NC(C)=O)c2ncc(C)cc12 (stereo not given) | 140 to 141
19 | CC(=O)Nc1cccc(C#Cc2ccc(OC3CN4CCC3CC4)nn2)c1 (stereo not given) | 132 to 134

Row | SMILES | melting point [°C]
20 | COc1cc(CO)ccc1OCc1nc(N2CCCCC2)sc1C | 92 to 93
21 | COc1cc2[nH]ccc(=O)c2cc1OC | 120 to 122
22 | CCCCn1nc2c(N)nc3ccccc3c2c1CC(C)(C)C | 163 to 164
23 | NC(=O)c1ccc2nc3ccsc3c(=O)n2c1 | 319 to 320
24 | CC(CCCCOCCCc1ccc(N2CCCC2)cc1)NCC(O)c1cc(O)cc(O)c1 (stereo not given) | 57 to 60
25 | COc1nc(N)nc(Cl)c1C1=NCCN1 | 212
26 | O=c1ccn(-c2cccc(C(F)(F)F)c2)nc1-c1cc(C(F)(F)F)nn1-c1ccccc1 | 190 to 191
27 | CC(=O)OC1CCC2(C)C(=CC(=O)C3C4CC(OC(C)=O)C(=O)C4(C)CCC32)C1 (stereo not given) | 206
28 | CC(C)(C)c1cc(CCc2n[nH]c(=S)o2)cc(C(C)(C)C)c1O | 164 to 166
29 | C=C1CCC2C3CCc4cc(O)c(C=O)cc4C3CCC12C (stereo not given) | 128 to 130
30 | Cc1c(-c2cn(C)c(=O)c(Nc3ccc(C4C(=O)N(C)CCN4C(=O)OC(C)(C)C)cc3)n2)cccc1N1Cc2cc(C(C)(C)C)sc2C1=O (stereo not given) | 120 to 123
31 | CN1CC(CO)CC2(OCCO)c3cccc4[nH]cc(c34)CC12 (stereo not given) | 178 to 180
32 | Cc1nc(C)nc(NC(=O)NS(=O)(=O)c2ccccc2C)n1 | 141 to 145
33 | Cc1ccc(C)c(C2C(=O)Oc3c2cc(C(C)(C)C)cc3C(C)(C)C)c1 (stereo not given) | 93 to 97
34 | NC(=O)c1c(F)cc(-c2ccc3nnn(Cc4ccc5ncccc5c4)c3n2)cc1F | 272 to 275
35 | Nc1c(-c2ccc(-c3ccc(F)cc3F)cc2)nc2ccccc2c1C(=O)O | 244 to 247
36 | CC(C)(C)OC(=O)N(Cc1ccccc1)C1(CO)CC1 | 68
37 | CSc1nnc(SCC(=O)C23CC4CC(CC(C4)C2)C3)s1 | 134 to 135
38 | COc1cc(N2CCCN(C[C@@H](C)O)CC2)ccc1Nc1ncc2ccc(-c3ccccc3N(C)S(C)(=O)=O)n2n1 | 93 to 99

Row | SMILES | melting point [°C]
39 | CC(=O)SCSc1cnnn1C | 37 to 38
40 | NC(=O)NN=C1CCCCC1n1nc(-c2c(-c3ccccc3)nn3ccccc23)ccc1=O (stereo not given) | 227 to 229
41 | CCNS(=O)(=O)Nc1ccc(C(O)(C(F)(F)F)C(F)(F)F)cc1 | 178 to 179
42 | Cc1ncn(-c2ccc(C(=O)N3Cc4cccn4Cc4ccccc43)c(Cl)c2)n1 | 191 to 193
43 | Cn1c(=O)c2c(nc(CCc3cccc(N)c3)n2C)n(C)c1=O | 158 to 160
44 | N#CCNC(=O)C(Cl)=C(Cl)Cl | 58 to 60
45 | CCCc1nc2c(N)nc3cc(OCc4ccc(C(F)(F)F)cc4)ccc3c2n1CC(C)C | 192 to 194
46 | CN(C)CCCC1(C#N)c2ccccc2COc2ccccc21 (stereo not given) | 112 to 114
47 | CC(C)(CO)c1cnc(-c2nn(-c3ccc(F)cc3F)c3c2C2CCC3C2)o1 (stereo not given) | 66 to 68
48 | CC(C)(NC(=O)CCSC(=O)c1ccccc1)C(=O)O | 142 to 143
49 | CC1=NC=C(c2ccc3c(c2)NC(=O)CO3)C(c2ccccc2)S1 (stereo not given) | 187 to 189
50 | Cc1ccccc1C1CCN(CCc2c[nH]c3ccccc23)CC1 | 111 to 112
51 | NN(Cc1ccc(Cl)cc1)c1ccc(OCc2ccc3ccccc3n2)cc1 | 130
52 | CCCCc1oc2ccccc2c1C(=O)Nc1ccc2cc(OCC#N)ccc2c1 | 122 to 124
53 | Cc1cccc(Sc2nc(C#N)c(C#N)nc2Cl)c1 | 117 to 119
54 | CC(C)(C)NC(=O)[C@@H]1CCCN1C(=O)[C@@H](O)[C@H](Cc1ccccc1)NC(=O)[C@H](CC(N)=O)NC(=O)COc1ccccc1N | 107 to 114
55 | Cc1ccc2[nH]nc(S(C)=O)c(=O)c2c1 (stereo not given) | 265 to 267
56 | CCOC(=O)c1cnoc1-c1ccc(OC)c(OC)c1 | 113 to 114

Other lines, results leading:

Row | melting point [°C] | SMILES
57 | 152 to 154 | CCC(CC)Nc1cc(C)nc(Oc2c(C)cc(Cl)cc2C)c1[N+](=O)[O-]
58 | 268 | Nc1ncc(-c2noc(-c3cnn4c(C(F)(F)F)cc(-c5ccc(F)c(F)c5)nc34)n2)cn1
59 | 140 | CCOC(=O)C(=CNc1ccc2c(c1)N1CCN=C1S2)C(=O)OCC
60 | 192 to 196 | CC(=O)c1ccc(N2CCN(c3c(C)c(C)c4c(c3C)CC(C)(C)O4)CC2)cc1
61 | 219 to 220 | CC(=O)c1ccc2c(c1)S(=O)(=O)c1cc(C(C)=O)ccc1O2
62 | 96 to 100 | O=c1c2c([nH]n1-c1cc(OCC3CCCSC3)c(Cl)cc1F)CCCC2 (stereo not given)
63 | 73 to 74 | Nc1ccc(CCn2cccn2)cc1
64 | 165 to 166 | O=C(O)C(=C1SCCCS1)c1cccc(C(F)(F)F)c1
65 | 97 to 98 | CCOC(=O)C=C(C)Oc1ccc(C23CC4CC(CC(C4)C2)C3)cc1
66 | 190 to 192 | CC(C)(C)CCC/C(=C\c1ccc(C(=O)O)cc1)Cn1ccnc1
67 | 52 | C=C(Cn1cncn1)Cn1cncn1
68 | > 300 | CCCN1Cc2c(ncnc2C2C(=O)Nc3ccc(C#N)cc32)N1 (stereo not given)
69 | 98 to 99 | CC(C)(C)OC(=O)NC1Cc2ccccc2C(F)C1O (stereo not given)
70 | 177 | CCNc1nnc(C(C)(C)C)c(=O)n1N
71 | 182 | Cc1ccc(-c2cc(C(F)(F)F)n3ncc(-c4cccnc4)c3n2)cc1C(F)(F)F
72 | 122 | Cc1c(-c2ncncc2Br)ssc1=S
73 | 72 to 74 | CCOC(=O)C1=C(N)C(NCC(O)COCc2cccc(CN3CCCCC3)c2)=NS1(=O)=O (stereo not given)
74 | 134 to 135 | Cc1nc2nc(SCc3ccccc3)nn2c(C)c1C
75 | 176 to 178 | CCCC(O)(CCC)c1ccc(Cl)c2nc3n(c12)CCCN3c1c(C)cc(Cl)cc1Cl
76 | 79 to 79.5 | Cc1ccc(SC(C#N)c2cccc(C(=O)c3ccccc3)c2)cc1 (stereo not given)
77 | 278 to 280 | Nc1cc(-c2ccccn2)cc2nc(-c3ccccc3)nn12
78 | 196 to 198 | CCn1c(=O)ccc2cnc(Nc3ccc(OC)c(F)c3)nc21

Row | melting point [°C] | SMILES
79 | 216 to 218 | CC(=O)Nc1nc(CCc2ccc(NC(=N)NN)cc2)cs1
80 | 140 to 141 | Cn1ncc2c1-c1c(Nc3ccccc3)sc(C(N)=O)c1CC2
81 | 198 | N#Cc1c(N2CCCC2)nsc1N
82 | 93.5 to 94.5 | CCc1c(C(N)=O)sc(SC)c1-c1oncc1C
83 | 214 to 216 | CCOC(=O)N1CCc2cc(S(=O)(=O)n3cc(-c4ccccc4)[nH]c3=O)ccc21
84 | 184 to 186 | C=C(C)CN(CC(=O)O)c1c(N)c(=O)c1=O
85 | 184 to 186 | COc1ccc2c(c1OC)CCC(NC(C)=O)C2O (stereo not given)
86 | 58 to 60 | COC(=O)CCc1cn(Cc2ccc(C(=O)OC(C)(C)C)cc2OC)c2cc(C(=O)NCC3CCCC3)ccc12
87 | 121 | CCOC(=O)N1CCc2nc3cc(C)ccc3c(C)c2CC1
88 | 144 to 145 | COc1ccc(-c2nn(Cc3ccc(Cl)cc3)c(=S)cc2-c2ccncc2)cc1
89 | 222 to 224 | CCOC(=O)c1cn(C)c2cc(C(F)(F)F)ccc2c1=O
90 | 151 to 153 | CN(C)C(=O)c1cccc(NC(=O)Oc2ccccc2)c1
91 | 86 to 87 | COC(=O)C[C@H](Cc1ccc(-c2ccccc2)cc1)NC(=O)OC(C)(C)C
92 | 116 to 117 | O=C1NC(=O)C(CC#Cc2ccc(Cl)cc2)(Sc2ccc(F)cc2)S1 (stereo not given)
93 | 187 to 193 | CC(C)C(=O)NC[C@H]1CN(c2ccc3c(c2)CCCc2cnoc2-3)C(=O)O1
94 | 259 to 261 | CC1CCc2c(N3CCC(N(C)C)CC3)c(F)cc3c(=O)c(C(=O)O)cn1c23 (stereo not given)
95 | 146 to 148 | Cc1c(C)c2c(c(C)c1NC(=O)CC(C)(C)C)C(c1ccc(C3CCCCC3)cc1)CO2 (stereo not given)
96 | 125 | CCCN(CCCc1c[nH]c2ccc(F)cc12)C1COc2c(F)ccc(C(N)=O)c2C1 (stereo not given)
97 | 64 to 66 | CCCCCCCCCCCCOC(=O)c1cc(N=NN(CCO)c2ccc(C)cc2)ccc1[N+](=O)[O-]
98 | 172 to 174 | COc1ccc2c(c1O)CCN(C=O)C2
99 | 55 to 56 | CC(C)n1cnc2c(Nc3cccc(Cl)c3)nc(NCCN)nc21
100 | 135 | Cc1cccc(NC(=O)NCC(=O)N(CC(=O)OC(C)(C)C)c2cccc(Cl)c2Cl)c1
